# Laboratory results from patent US9845482B2, “Compositions and methods for enhancing bioenergetic status in female germ cells” (The General Hospital Corporation, priority 2011, dated 2017).
# “Also recorded” adds a separate entry of the source. Where two headings read alike, the source gives them in different places.
# Tests used:
# [1] = system: young and old mice; assay: NAD+ levels in vivo after systemic NMN
# Procedure: FIG. 42 is a graph showing that the NAD^+ precursor NMN raises NAD^+ levels in vivo in young and old mice. Cardiac [NAD^+] declines with age and is reversed by NMN treatment (n=3; 200 mg·kg·d. I.P. for 1 week).
# (§1) NMN is delivered by intraperitoneal (I.P.) injection and raises NAD levels in brain, heart and skeletal muscle ˜30-100%. NMN increases mitochondrial function in C2C12 cells in a SIRT1-dependent manner (FIGS. 43C, D). sh Ct1=scrambled shRNA, Sh SIRT1=shRNA against SIRT1.
# (§2) NMN and other compounds that increase NAD^+ levels are useful for increasing fertility or otherwise reducing or reversing infertility in a female subject. In one embodiment, such compounds are delivered to a subject orally, by intraperitoneal injection (IP), or subcutaneously to increase the probability that the subject will conceive and deliver healthy offspring. Systemic administration of the NAD^+ precursor NMN raised NAD^+ levels in vivo in young and old mice. Cardiac [NAD^+] declines with age. This decline in NAD^+ was reversed by NMN treatment (n=3; 200 mg·kg·d. I.P. for 1 week)(FIG. 42). […] In another embodiment, NMN and other compounds that increase NAD^+ levels are delivered to an OSC, oocyte, blasotcyst, sperm, or isolated mitochondria in vitro. For example, such compounds are delivered to a germ cell prior to, during or following IVF. In another embodiment, a compound of the invention is used to enhance the yield or preservation of mitochondria from an OSC, oocyte, blasotcyst, sperm, or isolated mitochondria in vitro.
# [2] = system: murine oogonial stem cells (OSCs); assay: NAD+/NADH quantitation in murine OSCs treated with NMN; type: cell-based; details: NMN added at 12 h and 6 h prior to analysis
# Procedure: FIGS. 39A-39C are graphs showing that nicotinamide mononucleotides raise cellular NAD^+ and NAD+/NADH in murine oogonial stem cells (OSCs). Oogonial stem cells were isolated from dissociated ovaries using a FACS based sorting protocol to purify OSCs free of contaminating oocytes (see Example 1). Cells were maintained in culture medium consisted of minimum essential medium α (MEMα), 10% FBS, 1 mM sodium pyruvate, 1 mM non-essential amino acids, 2 mM L-glutamine, 0.1 mM β-mercaptoethanol (Sigma Aldrich Corporation, St. Louis, Mo., USA), 10 ng/ml-1 LIF (Millipore), 1× N-2 MAX Media Supplement (R&D) 10 ng/ml EGF (Epidermal growth factor, Recombinant human; Gibco Division of ThermoFisher Scientific, Waltham, Mass., USA), 40 ng/ml human GDNF (glial cell line-derived neurotrophic factor; R&D systems), 1 ng/ml human bFGF (basic fibroblast growth factor; Gibco Division of ThermoFisher Scientific, Waltham, Mass., USA).
# Oogonial stem cells were isolated from dissociated ovaries using a FACS based sorting protocol to purify OSCs free of contaminating oocytes (for details, see Example 1), Cells were maintained in culture medium consisted of minimum essential medium α (MEMα), 10% FBS, 1 mM sodium pyruvate, 1 mM […], 2 mM L-1-glutamine, 0.1 mM β-mercaptoethanol (Sigma), 10 ng/ml-1 LIF (Millipore), 1× N-2 MAX Media Supplement (R&D) 10 ng/ml EGF (Epidermal growth factor, Recombinant human; Gibco Division of Thermofisher Scientific, Waltham, Mass., USA), 40 ng/nil human GDNF (glial cell line-derived neurotrophic factor; R&D systems), 1 ng/ml human bFGF (basic fibroblast growth factor; Gibco Division of Thermofisher Scientific, Waltham, Mass., USA)
# For all experiments 25,000 cells were plated in each well of a 24 well plate. Cells were allowed to attach for twenty-four hours and then were treated with NMN (β-Nicotinamide mononucleotide; Sigma). Unless otherwise stated, NMN was added twice to the cells, first at twelve hours and then again at six hours prior to analysis (12+6 h). Mitochondrial DNA Copy number was analysed as follows. Total cellular DNA was isolated from cells at the indicated time points using DNeasy Blood & Tissue Kit (Qiagen) according to the manufacturer's instructions. Mitochondrial DNA copy number was quantified using LIGHTCYCLER 480 SYBR® Green I Master (Roche Applied Science, Penzberg, Germany) using the following primers on a LIGHTCYCLER480 PCR machine (Roche Applied Science (Penzberg, Germany).
# OSCs and oocytes treated with an NAD precursor (e.g. […] ie. “NMN”, see FIG. 38) had increased NAD^+, NAD^+:NADH, and mitochondrial DNA content (FIG. 40).
# [3] = system: skeletal muscle of 24-month old mice; assay: Mitochondrial function in vivo after NMN; details: 1 week of treatment, I.P.
# Source text: as §1, §2
# [4] = system: cultured murine oogonial stem cells; assay: Spontaneous oocyte formation in cultured murine OSCs after NMN; type: cell-based; details: 25,000 OSCs per well of a 24-well plate
# Procedure: FIG. 41 is a graph showing that nicotinamide mononucleotide increases spontaneous oocyte formation in cultured murine oogonial stem cells. For assessment of spontaneous oocyte formation, each well of a 24-well plate was seeded with 25,000 OSCs, and the number of oocytes formed and released into the medium per well was assessed the second day after seeding as well as the designated time points after NMN treatment.
# Each well of a 24-well plate was seeded with 25,000 OSCs. The number of oocytes formed and released into the medium per well was assessed the second day after seeding as well as the designated time points after NMN treatment. […] NMN treatment is also expected to enhance the function of OCSsOSCs, oocytes, granulose cells, and blood vessels in the ovary.
# [5] = system: murine OSCs; assay: Mitochondrial DNA copy number in murine OSCs treated with NMN; type: cell-based
# Source text: FIG. 40 is a graph showing that nicotinamide mononucleotide increases mitochondrial DNA content in murine OSCs. Total cellular DNA was isolated from cells at the indicated time points using DNEASY® Blood & Tissue Kit (Qiagen, Venlo, The Netherlands) according to the manufacturer's instructions. Mt DNA copy number was quantified using LIGHTCYCLER®480 SYBR® Green I Master (Roche Applied Science, Penzberg, Germany) using a LIGHTCYCLER®480 PCR machine (Roche Applied Science, Penzberg, Germany). […]
# For all experiments 25,000 cells were plated in each well of a 24 well plate. […] Mitochondrial DNA Copy number was analysed as follows. […] Mitochondrial DNA copy number was quantified using LIGHTCYCLER 480 SYBR® Green I Master (Roche Applied Science, Penzberg, Germany) using the following primers on a LIGHTCYCLER480 PCR machine (Roche Applied Science (Penzberg, Germany).
# [6] = system: C2C12 cells; assay: Mitochondrial function in C2C12 cells with NMN (scrambled vs SIRT1 shRNA); type: cell-based; details: SIRT1-dependent manner
# Source text: as §1
# [7] = system: Mouse OSCs; assay: NAD+ and NADH levels in mouse OSCs treated with mitochondrial enhancers; type: cell-based; details: 24 hours
# Procedure: FIG. 35 depicts levels of NAD+ (A) and NADH (B) in OSCs treated with mitochondrial enhancers. Mouse OSCs maintained in culture (Zou et al., Nat Cell Biol 2009 11:631-636) were exposed to the indicated test compounds for 24 hours and then assessed for levels of NAD+ and NADH. Female infertility due to chemotherapy, aging and premature ovarian failure (POF) is due in part to a decline in mitochondrial function in oocytes and OSCs. Accordingly, OSCs from mice were used to screen for small compounds that enhance mitochondrial function (“bioenergetic status”) in female germline cells. Assays for enhancing mitochondrial function included mtDNA content, ATP, NAD+/NADH, mitochondrial mass, mitochondrial membrane potential, and gene expression of known mitochondrial mass regulators and electron transport chain components. All the compounds were dissolved in DMSO. For screening purposes the cells were treated with the vehicle (0.001% DMSO) or with 25 or 50 μM of each compound (except for berberine, which the concentrations used for the screen were 5 μM and 25 μM) for 24 hours. For validation of the top 6 hits, cells were treated with vehicle (0.001% DMSO) or either 5 or 25 μM of each compound for 24 hours. For the gene expression profile, the cells were treated with the concentration that was considered to work better in the previous validation assays.
# [8] = system: OSCs from mice; assay: Screen of mouse OSCs for compounds that enhance mitochondrial function (mtDNA, ATP, mitochondrial mass, membrane potential, gene expression); type: cell-based; details: 24 hours
# Source text: Female infertility due to chemotherapy, aging and premature ovarian failure (POF) is due in part to a decline in mitochondrial function in oocytes and OSCs. Accordingly, OSCs from mice were used to screen for small compounds that enhance mitochondrial function (“bioenergetic status”) in female germline cells. Assays for enhancing mitochondrial function included mtDNA content, ATP, NAD+/NADH, mitochondrial mass, mitochondrial membrane potential, and gene expression of known mitochondrial mass regulators and electron transport chain components.
# All the compounds were dissolved in DMSO. For screening purposes the cells were treated with the vehicle (0.001% DMSO) or with 25 or 50 μM of each compound (except for berberine, which the concentrations used for the screen were 5 μM and 25 μM) for 24 hours. For validation of the top 6 hits, cells were treated with vehicle (0.001% DMSO) or either 5 or 25 μM of each compound for 24 hours. For the gene expression profile, the cells were treated with the concentration that was considered to work better in the previous validation assays.
# Mitochondrial membrane potential was measured with a fluorescent probe, Tetramethylrhodamine methyl ester (TMRM) (Sigma) as described before (Rolo A. P. Biochim. Biophys. Acta 2003 1637: 127-132). Briefly the cells were loaded with 6.6 μM TMRM in HBSS buffer at 37° C. for 15 minutes in the dark. The supernatant was then aspirated, and the cells returned to the original volume with KHH. TMRM is a membrane-permeable cationic fluorophore that accumulates electrophoretically in mitochondria in proportion to their mitochondrial membrane potential (Ehrenberg B. V. et al. Biophys. J. 1988 53:785-794). Cell suspensions (200 μl containing 10^5 cells) were loaded into 96-well plates and fluorescence measured using excitation and emission wavelengths of 485 and 590 nm, respectively. Mitochondrial membrane potential was estimated, taking into account the complete depolarization caused by carbonyl cyanide p-(trifluoromethoxy)phenylhydrazone (FCCP).
# For mtDNA analysis, total DNA was extracted with DNeasy blood and tissue kit (QIAGEN). mtDNA was amplified using primers specific for the mitochondrial cytochrome c oxidase subunit 2 (COX2) gene and normalized to genomic DNA by amplification of the ribosomal protein s18 (rps18) nuclear gene. Primers were designed using the IDT software (IDT).
# ATP content was measured using a luciferase-based assay with a commercial kit according to the manufacturer's instructions (Roche Applied Science, Penzberg, Germany) and normalized to protein content in each sample.
# Mitochondrial mass was evaluated using the fluorescent probe N-nonyl acridine orange (NAO), briefly the cells were incubated in culture media containing 10 nM of NAO for 30 minutes at 37° C. in the dark. The cells were then trypsinized and resuspended in culture media without NAO. The NAO fluorescence intensity was then determined by flow cytometry on the FACSCALIBUR® (BD Biosciences, San Jose, Calif., USA) using the 488 nm laser.
# For gene expression analysis, RNA from skeletal muscle tissue and C2C12 cells were extracted with RNeasy mini kit (QIAGEN) according to the instructions and quantified using the NanoDrop 1000 spectrophotometer (Thermo Scientific). cDNA was synthesized with the iSCRIP cDNA synthesis kit (BioRad) using 200 ng of RNA. Quantitative RT-PCR reactions were performed using 1 μM of primers and LIGHTCYCLER® 480 SYBR® Green Master (Roche Applied Science, Penzberg, Germany) on an LIGHTCYCLER® 480 detection system (Roche Applied Science, Penzberg, Germany). Calculations were performed by a comparative method (2-ΔΔCT) using actin as an internal control. Primers were designed using the IDT software (IDT).
# [9] = listed as nicotinamide mononucleotides
# [10] = listed as nicotinamide mononucleotide
Structure (SMILES),"decline of cardiac [NAD^+] with age ([1]; 200 mg·kg·d. I.P. for 1 week, n=3)","raise of NAD levels in brain, heart and skeletal muscle ([1]; intraperitoneal (I.P.) injection)","NAD^+ levels in vivo ([1]; young and old mice, systemic administration)",NAD+/NADH [2],cellular NAD^+ [2],"NAD+/NADH [2, 9]","cellular NAD^+ [2, 9]",mitochondrial function in vivo (decline in skeletal muscle of 24-month old mice) [3],"spontaneous oocyte formation (rate of egg formation, EFA) [4]","spontaneous oocyte formation (rate of egg formation, EFA) [4, 10]",mitochondrial DNA content [5],"mitochondrial DNA content [5, 10]",mitochondrial function in C2C12 cells [6],NAD^+ levels [7],mitochondrial parameters [8],"activity above the baseline (DMSO alone), scored as a positive result ([8]; 25 or 50 μM (berberine 5 μM and 25 μM))"
"NC(=O)c1ccc[n+]([C@@H]2O[C@H](COP(=O)([O-])O)[C@@H](O)[C@H]2O)c1 [NMN, β-Nicotinamide mononucleotide]",reversed,30-100%,raises,increased,increased,raise,raise,restorative effect; also recorded: completely reversed,increased,increases,increased,increases,increases,,,
"N#CC(C#N)=Cc1ccc(O)cc1 [tyrphostin 8, 2[(4-hydroxyphenyl)methylidene]propanedinitrile]",,,,,,,,,,,,,,raise,increase mitochondrial parameters in a beneficial way,activity above the baseline
